From patent US5905089A, “Use of sesquiterpene lactones for treatment of severe inflammatory disorders” (Board of Supervisors of Louisiana State University and …, priority 1998, dated 1999)

Legend:
COX-2 [1] = assay: COX-2 expression in LPS-stimulated RAW 264.7 cells (Western blot); type: cell-based, murine; conditions: parthenolide 1 μg/ml with DTT 100 μM, 2-ME 50 μM or Cys 150 μM; LPS 1 μg/ml, 8h; FIG. 6B
Description: (§1) Rat (Sprague-Dawley) alveolar macrophages were collected by broncho-alveolar lavage as described by Lee et al., J. Biol. Chem., vol. 267, pp. 25934-25938 (1992). The murine macrophage cell line RAW 264.7 (ATCC no. TIB-71) was cultured in Dubecco's modified Eagle's medium (DMEM) containing 10% heat-inactivated fetal bovine serum (FBS, Intergen). For the cyclooxygenase activity assay, cells were seeded in 24 well plates, and after near-confluency, cells were treated with aspirin (250 μM) for 2.5h to inactivate endogenous cyclooxygenase. […] COX activity was determined by measuring prostaglandin E2 concentrations in cells incubated with arachidonic acid (30 μM) for 10 minutes as described in Lee et al. (1992).
(§2) The protein levels of COX-2 and GAPDH were assessed by Western blot analysis using polyclonal antibodies as described in Lee et al. (1992). Polyclonal antibodies for IL-1α and JNK-1 were purchased from Genzyme and Santa Cruz Biotech, respectively.
(§3) Parthenolide suppressed LPS-stimulated tyrosine phosphorylation of various proteins in RAW 264.7 cells as assessed by antiphosphotyrosine immunoblot, depicted in FIG. 5A. This inhibition was correlated with the suppressed expression of COX-2 and IL-1α. RAW 264.7 cells were pretreated with parthenolide in various concentrations or with herbimycin A (0.5 μg/ml) for 3h, and then stimulated with LPS (1 μg/ml) in the presence of the inhibitors for 30 min. […] Therefore, the extent of tyrosine phosphorylation of JNK-1 was assessed by the electrophoretic mobility shift of phosphorylated JNK-1 as shown in FIG. 5B. Parthenolide inhibited tyrosine phosphorylation of JNK-1. Another protein tyrosine kinase inhibitor, herbimycin A ([…]), inhibited tyrosine phosphorylation of the MAPK subfamily.
(§4) The mechanism by which parthenolide inhibits protein tyrosine phosphorylation is not currently known. It has been speculated that the tyrosine kinase inhibitor herbimycin A inactivates p60^v-src kinase by irreversibly binding to the sulphydryl (SH) groups of p60^v-src kinase. Y. Uehara et al., Biochem. Biophys. Res. Commun., vol. 163, pp. 803-809 (1989). The inactivation by herbimycin may occur through conjugation between highly polarized double bonds in the benzoquinone moiety of herbimycin A and the SH group of sulphydryl compounds. Without wishing to be bound by this theory, the α-methylenebutyrolactone in parthenolide may interact with biological nucleophiles such as sulphydryl groups. Indeed, pretreating cells with sulphydryl compounds abrogated the inhibitory effect of parthenolide on LPS-induced activation of MAPKs as shown in FIG. 6A. […]

IL-1α = IL-1α expression in LPS-stimulated RAW 264.7 cells (Western blot); type: cell-based, murine; conditions: parthenolide 1 μg/ml with DTT 100 μM, 2-ME 50 μM or Cys 150 μM; LPS 1 μg/ml, 8h; FIG. 6B
Description: as §1, §2, §3, §4

MAPKs = assay: Tyrosine phosphorylation / activation of MAPKs in RAW 264.7 cells; type: cell-based, murine; conditions: for effect on parthenolide inhibition of LPS-induced activation of MAPKs: parthenolide 1 μg/ml with DTT 100 μM, 2-ME 50 μM or Cys 150 μM, LPS 1 μg/ml, 30 min, FIG. 6A
Description: as §1
(§5) This detection technique was carried out essentially as described in Chanmugan et al. (1995) using 4G10 monoclonal antiphosphotyrosine antibody (UBI) and the ECL detection system (Amersham).
as §3
The mechanism by which parthenolide inhibits protein tyrosine phosphorylation is not currently known. It has been speculated that the tyrosine kinase inhibitor herbimycin A inactivates p60^v-src kinase by irreversibly binding to the sulphydryl (SH) groups of p60^v-src kinase. Y. Uehara et al., Biochem. Biophys. Res. Commun., vol. 163, pp. 803-809 (1989). The inactivation by herbimycin may occur through conjugation between highly polarized double bonds in the benzoquinone moiety of herbimycin A and the SH group of sulphydryl compounds. Without wishing to be bound by this theory, the α-methylenebutyrolactone in parthenolide may interact with biological nucleophiles such as sulphydryl groups. Indeed, pretreating cells with sulphydryl compounds abrogated the inhibitory effect of parthenolide on LPS-induced activation of MAPKs as shown in FIG. 6A. In FIG. 6, RAW 264.7 cells were pretreated with parthenolide (1 μg/ml) in the presence of DTT (dithiothreitol, 100 μM), 2-ME (2-mercaptoethanol, 50 μM), or Cys (L-cysteine, 150 μM), and were then stimulated with LPS (1 μg/ml). Cells were incubated for 30 min for antiphosphotyrosine immunoblot analysis (FIG. 6A) and 8h for COX-2 and IL-1α Western blot analyses (FIG. 6B). […] Whether parthenolide inhibits protein tyrosine phosphorylation by directly inhibiting PTKs or by inhibiting other target protein(s) that affect the activity of PTKs is not currently known.

COX-2 [2] = assay: Inhibition of the expression of COX-2 in LPS-stimulated macrophages (Table 1); type: cell-based; conditions: for IC50, inhibiting the expression of COX-2: IC50 determined at multiple dose levels; for inhibitory activity (COX-2 expression), in words: comparison among tested compounds
Description: Rat (Sprague-Dawley) alveolar macrophages were collected by broncho-alveolar lavage as described by Lee et al., J. Biol. Chem., vol.
Alveolar macrophages pretreated with aspirin were incubated with LPS (10 μg/ml) and various concentrations of parthenolide for 16h. The activity of de novo synthesized COX-2 was determined by measuring the levels of PGE2 produced from exogenous arachidonic acid. Activity of TNFα was determined by bioassay using L929 cells as described by Aggarwal et al., J. Biol. Chem., vol. […] Values in FIG. 2 are the means of triplicate samples for TNFα and duplicate samples for PGE2.

tumor = conditions: cited from earlier work
[3] = system: epidermal growth factor receptor; conditions: in vitro; cited from earlier work
ERK-2 [4] = assay: Tyrosine phosphorylation of ERK-2 in RAW 264.7 cells (antiphosphotyrosine immunoblot); type: cell-based, murine; conditions: 3h pretreatment, LPS 1 μg/ml 30 min; FIG. 5A
Description: as §1, §5
(§6) Parthenolide suppressed LPS-stimulated tyrosine phosphorylation of various proteins in RAW 264.7 cells as assessed by antiphosphotyrosine immunoblot, depicted in FIG. 5A. This inhibition was correlated with the suppressed expression of COX-2 and IL-1α. […] Therefore, the extent of tyrosine phosphorylation of JNK-1 was assessed by the electrophoretic mobility shift of phosphorylated JNK-1 as shown in FIG. 5B. […]

ERK-1 [5] = assay: Tyrosine phosphorylation of ERK-1 in RAW 264.7 cells (antiphosphotyrosine immunoblot); type: cell-based, murine; conditions: 3h pretreatment, LPS 1 μg/ml 30 min; FIG. 5A
Description: as §1, §5, §6

ERK-2 [6] = assay: Kinase activity of ERK-2 in RAW 264.7 cells (in-gel kinase assay, MBP substrate); type: cell-based, murine; conditions: 3h pretreatment, LPS 1 μg/ml 30 min; FIG. 5
Description: as §1
(§7) This assay was performed according to the method described by Kameshita et al., Anal. Biochem., vol. 183, pp. 139-143 (1989) using myelin basic protein (MBP) as a substrate.
as §6

ERK-1 [7] = assay: Kinase activity of ERK-1 in RAW 264.7 cells (in-gel kinase assay, MBP substrate); type: cell-based, murine; conditions: 3h pretreatment, LPS 1 μg/ml 30 min; FIG. 5
Description: as §1, §7, §6

Q: Which results are given for `O[C@H](CS)[C@H](O)CS` (racemic) [DTT, dithiothreitol]?
A: effect on parthenolide-inhibited expression of COX-2 (COX-2 [1]): recovered expression; effect on parthenolide-inhibited expression of IL-1α (IL-1α): recovered expression; effect on parthenolide inhibition of LPS-induced activation of MAPKs (MAPKs): abrogated

Q: With `OCCS` [Compound 2-ME, 2-mercaptoethanol] as the compound, how does the “effect on parthenolide-inhibited expression of COX-2” value (COX-2 [1]) read?
A: Its value is “recovered expression”.

Q: And the “effect on parthenolide-inhibited expression of IL-1α” value (IL-1α)?
A: Its value is “recovered expression”.

Q: What about the “effect on parthenolide inhibition of LPS-induced activation of MAPKs” value (MAPKs) of the same compound?
A: The value was “abrogated”.

Q: What does the source list for `C=C1C(=O)O[C@@H]2/C=C(\C)[C@@H]3O[C@@H]3/C=C(/C(=O)OC)[C@H](O)[C@@H](OC(=O)[C@]3(C)O[C@@H]3C)[C@@H]12` [Compound 5, Melampodin A]?
A: IC50, inhibiting the expression of COX-2 (COX-2 [2]): 0.5 µg/mL; inhibitory activity (COX-2 expression), in words (COX-2 [2]): activities similar to that of parthenolide

Q: For `C=C1C(=O)O[C@@H]2[C@H]1CC[C@H](C)[C@]1(CCC(=O)O1)[C@@]2(C)O` [Compound 8, Psilostachyin A], which IC50, inhibiting the expression of COX-2 (COX-2 [2]) is on record?
A: Its IC50, inhibiting the expression of COX-2 is 1.3 µg/mL.

Q: Which IC50, inhibiting the expression of COX-2 (COX-2 [2]) does the source give for `C=C1C(=O)O[C@@H]2/C=C(\C)CC/C=C(\C)CC[C@@H]12` [Compound 9, Costunolide] here?
A: The IC50, inhibiting the expression of COX-2 was 1.6 µg/mL.

Q: With `C[C@@H]1C[C@@H]2OC(=O)[C@]3(C)[C@H]2[C@@H](OC3(C)O)[C@]2(C)C(=O)C=C[C@@H]12` (stereo partly shown) [Compound 10, Tenulin] as the compound, how does the antitumor activity (tumor) read?
A: Its antitumor activity is “antitumor activity”.

Q: What about the IC50, inhibiting the expression of COX-2 (COX-2 [2]) of the same compound?
A: Its IC50, inhibiting the expression of COX-2 is 5.5 µg/mL.

Q: And the “inhibitory activity (COX-2 expression), in words” value (from here on “inhibitory activity”) (COX-2 [2])?
A: Its value is “significantly less than that of compounds 1-9”.

Q: Which IC50, inhibiting the expression of COX-2 (COX-2 [2]) does the source give for `CC1=CCCC2(C)OC2C2OC(=O)C(C)C2CC1` (stereo not shown) [Compound 11, 11,13-dihydroparthenolide] here?
A: Its IC50, inhibiting the expression of COX-2 is over 100 µg/mL.

Q: What about the “inhibitory activity” value (COX-2 [2]) of the same compound?
A: Its value is “loss of inhibitory activity”.

Q: For `CC1C(=O)OC2C1CCC1(C)OC1CCC1(C)OC21` (stereo not shown) [Compound 12, 1(10)epoxy-11,13-dihydroparthenolide], which IC50, inhibiting the expression of COX-2 (COX-2 [2]) is on record?
A: The IC50, inhibiting the expression of COX-2 was over 100 µg/mL.

Q: What about the “inhibitory activity” value (COX-2 [2]) of the same compound?
A: The value was “loss of inhibitory activity”.

Q: Which IC50, inhibiting the expression of COX-2 (COX-2 [2]) does the source give for `CC1=C2[C@H]3OC(=O)[C@@H](C)[C@@H]3CC[C@@]2(C)C=CC1=O` [Compound 13, Santonin, reference compound] here?
A: Its IC50, inhibiting the expression of COX-2 is over 100 µg/mL.

Q: For `N[C@@H](CS)C(=O)O` [Cys, L-cysteine], which “effect on parthenolide-inhibited expression of COX-2” value (COX-2 [1]) is on record?
A: The value was “recovered expression”.

Q: And the “effect on parthenolide-inhibited expression of IL-1α” value (IL-1α)?
A: The value was “recovered expression”.

Q: What about the “effect on parthenolide inhibition of LPS-induced activation of MAPKs” value (MAPKs) of the same compound?
A: Its value is “abrogated”.

Q: For `O=c1c(-c2ccc(O)cc2)coc2cc(O)cc(O)c12` [genistein], which “tyrosine-specific protein kinase activity of the EGF receptor” value [3] is on record?
A: The value was “inhibited”.

Q: With `C=C1C(=O)O[C@@H]2C[C@@H](C)[C@@H]3C=CC(=O)[C@@]3(C)[C@@H](O)[C@H]12` [helenalin, reference compound] as the compound, how does the antitumor activity (tumor) read?
A: The antitumor activity was “some antitumor activity”.

Q: With `COC1C=CC=C(C)C(=O)NC2=CC(=O)C=C(C2=O)C(OC)C(C)CC(OC)C(OC)C(C)C=C(C)C1OC(N)=O` (stereo not shown) [herbimycin A, reference compound] as the compound, how does the “tyrosine phosphorylation of ERK-2” value (ERK-2 [4]) read?
A: The value was “dose-dependent inhibition”.

Q: And the “tyrosine phosphorylation of ERK-1” value (ERK-1 [5])?
A: Its value is “dose-dependent inhibition”.

Q: And the “kinase activity of ERK-2” value (ERK-2 [6])?
A: Its value is “dose-dependent inhibition”.

Q: What about the “tyrosine phosphorylation of the MAPK subfamily” value (MAPKs; 3h pretreatment (herbimycin A 0.5 μg/ml), LPS 1 μg/ml 30 min) of the same compound?
A: Its value is “inhibited”.

Q: And the “kinase activity of ERK-1” value (ERK-1 [7])?
A: Its value is “dose-dependent inhibition”.

Q: With Encelin [Compound 2] as the compound, how does the IC50, inhibiting the expression of COX-2 (COX-2 [2]) read?
A: The IC50, inhibiting the expression of COX-2 was 0.1 µg/mL.

Q: What about the “inhibitory activity” value (COX-2 [2]; listed as Encelin) of the same compound?
A: The value was “most active compound tested”.

Q: What about the “inhibitory activity” value (COX-2 [2]; listed as encelin) of the same compound?
A: Its value is “highest inhibitory activity”.
